From US4598077A, “Amidine derivatives and cardiotonic compositions” (Torii & Co. Ltd., priority 1983, dated 1986)
Counter-ions that a name gives are not always drawn. Like-named read-outs stand apart in the source and are kept apart here.

Assays:
[1] = test system: papillary muscle preparation; experiment: Isolated, blood-perfused papillary muscle preparation, developed tension (Table 1); parameters: species or system Mongrel dogs; conditions: Canis lupus familiaris, close-arterial injection, read-out: Papillary muscle preparation, % increase in developed tension; for activation at 0.03 mg: dose 30 μg; for activation at 0.1 mg: dose 100 μg; for activation at 0.3 mg: dose 300 μg
Procedure: Mongrel dogs of either sex weighting 7.5-10 kg were anesthetized with sodium pentobarbital (30 mg/kg, i.v.). Each animal was given an intravenous dose of sodium heparin (500 units/kg), thereafter, the heart was removed and placed in cold Tyrode solution. The isolated and cross-circulated right atrium and papillary muscle preparations were arranged for perfusion from a donor dog as follows. The donor dog was also anesthetized with sodium pentobarbital (30 mg/kg, i.v.); heparin (500 units/kg) was given intravenously immediately before the perfusion began. (a) The isolated, blood-perfused papillary muscle preparation. The anterior septal artery was dissected and cannulated with polyethylene tubing. The tendinous end of the papillary muscle was connected to a strain-gauge transducer by a fine silk thread and the muscles were under about 2 g of resting tension. The papillary muscle preparation was electrically driven at a constant frequency of 120/min with rectangular pulses of 1-3 V and 5 msec duration. The preparation of the blood-perfused papillary muscle has been described in detail by Endoh and Hashimoto Am. J. Physiol, 218, 1459-1463 (1970). Each preparation was perfused with the arterial blood from the carotid artery of the donor dog at a constant perfusion pressure of 100 mmHg by means of a peristaltic pump. The venous effluent from the preparations was collected in a reservoir and returned to the donor dog through the jugular vein. Test compounds used in these experiments were dissolved in vehicle solution and were injected closearterially to the preparations. The effects of each compound on the developed tension and sinuo rate were evaluated as a percentage change in values determined before and after administration of the compound. In Table 1 are shown such changes in terms of the percentage increase after administration.

right atrium preparation = experiment: Isolated, blood-perfused right atrium preparation, sinus rate (Table 1); parameters: species or system Mongrel dogs; conditions: Canis lupus familiaris, close-arterial injection, read-out: Right atrium preparation, % increase in sinus rate; for activation at 0.03 mg: dose 30 μg; for activation at 0.1 mg: dose 100 μg; for activation at 0.3 mg: dose 300 μg
Procedure: Mongrel dogs of either sex weighting 7.5-10 kg were anesthetized with sodium pentobarbital (30 mg/kg, i.v.). Each animal was given an intravenous dose of sodium heparin (500 units/kg), thereafter, the heart was removed and placed in cold Tyrode solution. The isolated and cross-circulated right atrium and papillary muscle preparations were arranged for perfusion from a donor dog as follows. The donor dog was also anesthetized with sodium pentobarbital (30 mg/kg, i.v.); heparin (500 units/kg) was given intravenously immediately before the perfusion began. (b) The isolated, blood-perfused right atrium preparation. The sinus node artery was cannulated at its origin in the right coronary artery. A right atrial electrogram was obtained from bipolar electrodes which were placed in close proximity to the sinoatrial node. The sinus rate was recorded by a cardiotachometer triggered by the right atrial electrogram. The details of the bloodperfused right atrium preparation have been described by Chiba et al. (Tohoku J. exp. Med., 107, 101-102 (1972) and Kubota and Hashimoto (Naunyn-Schmiedeberg's Arch. Pharmacol., 278, 135-150 (1973)). Each preparation was perfused with the arterial blood from the carotid artery of the donor dog at a constant perfusion pressure of 100 mmHg by means of a peristaltic pump. The venous effluent from the preparations was collected in a reservoir and returned to the donor dog through the jugular vein. Test compounds used in these experiments were dissolved in vehicle solution and were injected closearterially to the preparations. The effects of each compound on the developed tension and sinuo rate were evaluated as a percentage change in values determined before and after administration of the compound. In Table 1 are shown such changes in terms of the percentage increase after administration.

[2] = test system: anesthetized open-chest dogs; experiment: Cardiovascular effect in anesthetized open-chest dogs (Table 2); assay type: in vivo, Mongrel dogs; conditions: femoral vein; for change in vivo at 0.1 mg/kg / change in vivo at 0.3 mg/kg / change in vivo at 0.01 mg/kg / change in vivo at 0.03 mg/kg: Canis lupus familiaris, iv
Procedure: Mongrel dogs of either sex weighing 9-15 kg were anesthetized with sodium pentobarbital (30 mg/kg, i.v.). The heart was exposed by thoractomy by the left fifth intercostal incision under artificial respiration. Aortic flow was measured by the probe of electromagnetic flowmeter placed around the ascending aorta. Myocardial contractility was measured by the maximal rate of rise of left ventricular pressure which was recorded from a needle inserted into the ventricular cavity. The systemic blood pressure was measured with a pressure transducer by means of a polyethylene cannular inserted into the femoral artery. The heart rate was recorded by a cardiotrachometer triggered by R wave of electrocargiogram (Lead II). Test compounds were dissolved in vehicle solution and were injected into the femoral vein. The effects of each compound on the cardiac contractility and aortic flow were evaluated as a percentage change in values determined before and after administration of the compound. In Table 2 are shown such changes in terms of the percentage increase after administration.

[3] = 0.1 mg/kg, read-out: Increase in aortic flow (%)
[4] = 0.1 mg/kg, read-out: Increase in cardiac contractility (%)
[5] = 0.3 mg/kg, read-out: Increase in aortic flow (%)
[6] = 0.3 mg/kg, read-out: Increase in cardiac contractility (%)
[7] = read-out: Increase in aortic flow (%)
[8] = read-out: Increase in cardiac contractility (%)

Compound | activation at 0.03 mg [1] [%] | activation at 0.1 mg [1] [%] | activation at 0.03 mg (right atrium preparation) [%] | activation at 0.1 mg (right atrium preparation) [%] | change in vivo at 0.1 mg/kg [2, 3] [%] | change in vivo at 0.1 mg/kg [2, 4] [%] | change in vivo at 0.3 mg/kg [2, 5] [%] | change in vivo at 0.3 mg/kg [2, 6] [%] | change in vivo at 0.01 mg/kg [2, 7] [%] | change in vivo at 0.01 mg/kg [2, 8] [%] | change in vivo at 0.03 mg/kg [2, 7] [%] | change in vivo at 0.03 mg/kg [2, 8] [%] | % decrease in cardiac contractility (in parentheses) ([2]; 0.3 mg/kg) [%] | activation at 0.3 mg [1] [%] | activation at 0.3 mg (right atrium preparation) [%] | % decrease in aortic flow (in parentheses) ([2]; 0.1 mg/kg) [%] | % decrease in cardiac contractility (in parentheses) ([2]; 0.1 mg/kg) [%]
CNC(=N)c1ccc(CCc2ccc(CN)cc2)cc1 [Compound 1, 4-[2-(4-aminomethylphenyl)ethyl]-N-methylbenzamidine dihydrochloride] | 44.1 | 78.1 | 26.2 | 34.1 | 30.4 | 42.1 | 38.8 | 57.5 |  |  |  |  |  |  |  |  | 
CNC(=N)c1ccc(CCc2ccc(CN)cc2OC)cc1 [Compound 3, 4-[2-(4-Aminomethyl-2-methoxyphenyl)ethyl]-N-methylbenzamidine dihydrochloride] | 73.3 | 115 | 17.9 | 32.5 |  |  |  |  | 4.1 | 14 | 21.7 | 24.6 |  |  |  |  | 
CCCCNC(=N)c1ccc(CCc2ccc(CN)cc2)cc1.Cl.Cl [Compound 4, 4-[2-(4-Aminomethylphenyl)ethyl]-N-n-butyl-benzamidine dihydrochloride] | 45.8 | 76.5 | 19 | 30.6 | 20 | 26.1 | 50 | 52.9 |  |  |  |  | -3.4 |  |  |  | 
N=C(NCCc1ccccn1)c1ccc(CCc2ccc(CN)cc2)cc1 [Compound 6, 4-[2-(4-Aminomethylphenyl)ethyl]-N-[2-(2-pyridyl)ethyl]benzamidine trihydrochloride] |  | 57.7 |  | 7.5 | 6.5 | 18 |  |  |  |  | 1.8 | 5.2 |  | 93.5 | 18.3 |  | 
CNC(=N)c1ccc(C=Cc2ccc(CN)cc2)cc1 [Compound 7, 4-[2-(4-aminomethylphenyl)ethenyl]-N-methylbenzamidine dihydrochloride] |  | 44.7 |  | 8.3 | 4.2 | 3.1 | 13.8 | 16.7 |  |  |  |  |  | 66 | 28.2 |  | 
CC(=O)O.N=C(N)c1ccc(OCc2ccc(CN)cc2)c(C(=O)c2ccccc2)c1 [Compound 9, 4-(4-Aminomethylbenzyloxy)-3-benzoylbenzamidine acetate] |  | 52.2 |  | 15.5 | 3.9 | 12.5 |  |  |  |  |  |  |  | 71.7 | 24.3 | -7.9 | -7.1
CNC(=N)c1ccc(OCc2ccc(CN)cc2)cc1 [Compound 10, 4-(4-Aminomethylbenzyloxy)-N-methylbenzamidine dihydrochloride] |  | 27.9 |  | 11.6 |  |  | 2.5 | 8.7 |  |  |  |  |  | 54.4 | 17.9 |  | 
N=C(N)c1ccc(OCc2ccc(CCCN)cc2)c(C(=O)c2ccccc2)c1 [Compound 11, 4-[4-(3-Aminopropyl)benzyloxy]-3-benzoylbenzamidine dihydrochloride] | 48.8 | 82.5 | 32 | 71.4 | 7.5 | 14.3 |  |  |  |  |  |  |  |  |  |  | 
CNC(=N)c1ccc(OCc2ccc(C=CCN)cc2)c(C(=O)c2ccccc2)c1 [Compound 12, 4-[4-(3-amino-1-propenyl)benzyloxy]-3-benzoyl-N-methylbenzamidine dihydrochloride] | 46.2 | 77.8 | 23.3 | 31.6 | 8.7 | 40 |  |  |  |  | 6.1 | 18.8 |  |  |  |  | 
